Laboratory results published in US20090263416A1, “REDUCTION OF ANTIBIOTIC RESISTANCE IN BACTERIA” (priority 2006, published 2009).

Columns and labels:
Assay type in all cases: cell-based
E. coli of swine origin = experiment: Curing of antibiotic resistance (replica plating); settings: for curing for amoxicillin and clavulanic acid / curing for ampicillin / curing for chloramphenicol: isolates treated with EB or IDU
Protocol: (§1) Plasmid curing of antibiotic resistant bacteria was measured as described by Lakshmi and Thomas (1989) and NCCLS (2000). Briefly, aliquots (final inoculum concentration approximately 1×10^5 CFU/ml) of Salmonella isolates, E. coli isolates, and commercial isolates of E. coli XL1-blue and E. coli RK2 were added to tubes containing 1 ml aliquots of increasing concentrations of P-YCWP or YCWP (0, 0.01, 0.1, 0.3, 0.5, 1.0, 2.0, 3.0% w/v). A control culture was established by adding bacterial isolates as described above to aliquots of increasing concentrations of mannose. Known curing agents [ethidium bromide and iododeoxyuridine (IDU)] were used as positive controls, and to provide a percent curing activity. Tubes were incubated at 35° C. for 24 hr.
(§2) Following incubation, bacterial aliquots were plated on MacConkey agar plates (master plates). Antibiotic resistance after treatment was evaluated by replica plating on MacConkey agar containing predetermined concentrations of antimicrobial agents. Minimum curing concentration (MCC) was defined as the minimum concentration of compound able to “cure” bacteria, that is, remove antibiotic resistance, within a 24 hr period. A sample was considered to contain bacteria resistant to an antibiotic when greater than 1% of a sample plated on a master plate of MacConkey agar grew on an antibiotic-containing replica plate.

E. coli (30) = experiment: Agglutination; settings: sugar 100 mM
Protocol: (§3) E. coli and Salmonella isolates were evaluated for ability to agglutinate P-YCWP and YCWP by growing isolates into TIF slants (10 g peptone, 5 g NaCl, 5 g yeast extract and 15 g bacto agar per liter) for 24 hr. Sugar solutions (100 mM) of glucose, mannose, or fructose were prepared in 100 mM phosphate-buffered solution (PBS) at pH 7.2. Yeast cell wall preparations were suspended (1 g YCWP) into 1 liter of PBS. The grown isolates were resuspended in PBS and mixed with 0.1 ml PBS as control or 0.1 ml sugar solution (glucose, mannose, or fructose) to occupy bacterial attachment sites. For adherence tests, 10 μl of P-YCWP or YCWP suspension was placed on a series of microscope slides. The negative control was […] of PBS mixed with YCWP suspension. Bacterial suspension (10 μl) as described above was added, mixed using an orbital shaker, and observed under light microscope (100-1000× magnification). The ability of any of the sugars to inhibit or weaken agglutination was considered evidence that that sugar played a role in agglutination/attachment for that bacteria.

S. Cholerasuis (2) = experiment: Agglutination; settings: sugar 100 mM
Protocol: as §3

Salmonella spp. (13) = experiment: Agglutination; settings: sugar 100 mM
Protocol: as §3

S. pullorum (1) = experiment: Agglutination; settings: sugar 100 mM
Protocol: as §3

[1] = system: S. enteritidis (ATCC 13076); experiment: Curing / plasmid loss; settings: streptomycin-resistant; 24 hr exposure, replica plating
Protocol: as §1
(§4) Following incubation, bacterial aliquots were plated on MacConkey agar plates (master plates). Antibiotic resistance after treatment was evaluated by replica plating on MacConkey agar containing predetermined concentrations of antimicrobial agents. Minimum curing concentration (MCC) was defined as the minimum concentration of compound able to “cure” bacteria, that is, remove antibiotic resistance, within a 24 hr period. […]
(§5) Plasmids were evaluated by microbial lysis and extraction of DNA (Mini-prep System, Bio-Rad Laboratories, Hercules, Calif.), followed by electrophoretic separation on 1% agarose gel (Bio-Rad). […]

E. coli XL1-blue = experiment: Curing / plasmid loss, narrow range plasmid strain; settings: FIG. 4
Protocol: as §1, §4, §5

[2] = system: E. coli ATCC 33766, plasmid pRK248clts; experiment: Curing, broad range plasmid strain; settings: tetracycline-resistant determinant; data not shown
Protocol: as §1, §2

| SMILES | curing for amoxicillin and clavulanic acid (E. coli of swine origin) [%] | curing for ampicillin (E. coli of swine origin) [%] | curing for chloramphenicol (E. coli of swine origin) [%] | agglutination with YCWP or P-YCWP in presence of sugar (E. coli (30)) | agglutination with YCWP or P-YCWP in presence of sugar (S. Cholerasuis (2)) | agglutination with YCWP or P-YCWP in presence of sugar (Salmonella spp. (13)) | agglutination with YCWP or P-YCWP in presence of sugar (S. pullorum (1)) | curing for neomycin (E. coli of swine origin; EB or IDU treatment) | curing for tetracycline (E. coli of swine origin; EB or IDU treatment) | curing [1] | curing (E. coli XL1-blue) | curing of the organism carrying the broad range plasmid [2] |
| --- | --- | --- | --- | --- | --- | --- | --- | --- | --- | --- | --- | --- |
| CC[n+]1c(-c2ccccc2)c2cc(N)ccc2c2ccc(N)cc21 [EB, ethidium bromide] | 100 | 5 | 100 |  |  |  |  |  |  |  |  |  |
| O=C(CO)[C@@H](O)[C@H](O)[C@H](O)CO [Fructcose, fructose] |  |  |  | Negative (−) | Negative (−) | Negative (−) | Negative (−) |  |  |  |  |  |
| O=c1[nH]c(=O)n([C@H]2C[C@H](O)[C@@H](CO)O2)cc1I [IDU, iododeoxyuridine] | 100 | 5 | 100 |  |  |  |  | no curing | no curing | Neither EB nor IDU showed any curing capacity | curing was seen | Neither yeast cell wall preparations nor traditional curing agents (EB, IDU) cured the organism |
